Among the data in patent US12435087B2, “Modulators of DCN-1 and methods of use thereof” (Cellarity, Inc., priority 2023, dated 2025) are IC50 values, retold here.

In the assay the target is DCN1 (DCUND1) protein PONY domain (Homo sapiens (Human), UniProt Q96GG9). The assay can be described thus: TR-FRET assay (binding to DCN-1, displacement of FAM-labeled probe). Put shortly: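 Compounds read at 1, 5 and 24 h, 0.1% final DMSO, by TR-FRET between terbium-streptavidin on biotinylated DCN1 PONY domain (E. coli) and a FAM-tagged non-covalent inhibitor probe. Two setups used, 5 nM protein with 20 nM labelled probe, or 0.31 nM protein with 100 nM labelled plus 800 nM unlabelled probe; buffer had TritonX and 200 mM NaCl. % activity relative to high (with probe) and low (without probe) controls.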
DCN1 (DCUND1) protein PONY domain, sequence (Q96GG9 60-248): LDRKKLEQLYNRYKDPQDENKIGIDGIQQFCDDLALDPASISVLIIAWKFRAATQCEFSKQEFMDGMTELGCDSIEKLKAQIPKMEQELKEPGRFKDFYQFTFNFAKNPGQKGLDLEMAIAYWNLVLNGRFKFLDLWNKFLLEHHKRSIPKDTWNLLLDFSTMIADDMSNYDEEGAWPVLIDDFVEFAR
Background: Time-resolved FRET reads energy transfer from a long-lived donor to a nearby acceptor.

Where [1] appears, read: 24 hr after treatment with compound, read-out: TR FRET IC50 24 hr.
Where [2] appears, read: TR FRET IC50 1 hr (nM), 1 hr after treatment with compound.
Where [3] appears, read: read-out: TR FRET IC50 1 hr, 1 hr after treatment with compound.

Like-named read-outs stand apart in the source and are kept apart here.

The IC50 is the concentration at which inhibition is half-maximal. As to `CCN1C(=O)[C@@H](NC(=O)c2cccc(C(F)(F)F)c2)[C@H](c2cccc(CNC(=O)C3=C(C(=O)OC)CCC3)c2)c2cnn(-c3ccccc3)c21` [Compound I-108], the IC50 by setting is: under setting [1], 1000 to 3000 nM; under setting [2], 1000 to 3000 nM.
As for `C=C(CC(=O)NCc1cccc([C@H]2c3cnn(-c4ccccc4)c3N(CC)C(=O)[C@@H]2NC(=O)c2cccc(C(F)(F)F)c2)c1)C(=O)OC` [Compound I-109], the IC50 fell in the range of 1000 to 3000 nM under setting [1] and 1000 to 3000 nM under setting [2].
For `CCN1C(=O)[C@H](NC(=O)c2cccc(C(F)(F)F)c2)[C@@H](c2ccccc2NC(=O)CCl)c2c(C)nn(-c3ccccc3)c21` [Compound I-110, N-((4S,5R)-4-(2-(2-chloroacetamido)phenyl)-7-ethyl-3-methyl-6-oxo-1-phenyl-4,5,6,7-tetrahydro-1H-pyrazolo[3,4-b]pyridin-5-yl)-3-(trifluoromethyl)benzamide], the IC50 is, setting by setting: under setting [1], 1000 to 3000 nM; under setting [2], 1000 to 3000 nM.
Consider `C/C=C(\CN1CCOCC1)C(=O)NCc1cccc([C@H]2c3cnn(-c4ccccc4)c3N(CC)C(=O)[C@@H]2NC(=O)c2cccc(C(F)(F)F)c2)c1` [Compound I-115], for which the half-inhibitory concentration (IC50) is, setting by setting: under setting [1], 1000 to 3000 nM; under setting [2], 1000 to 3000 nM.
As to `CCN1C(=O)[C@H](NC(=O)c2cccc(C(F)(F)F)c2)[C@@H](c2cccc(CNC(=O)/C=C(\C)C(=O)OC)c2)c2cnn(-c3ccccc3)c21` [Compound I-116], the IC50 under setting [1] lay within 1000 to 3000 nM and the IC50 under setting [2] lay in the range of 1000 to 3000 nM.
As to `CCN1C(=O)[C@H](NC(=O)c2cccc(C(F)(F)F)c2)[C@@H](c2cccc(CNC(=O)C3=C(C(=O)OC)CC3)c2)c2cnn(-c3ccccc3)c21` [Compound I-118], the IC50 is 1000 to 3000 nM under setting [1] and 1000 to 3000 nM under setting [2].
Take `CCN1C(=O)[C@H](NC(=O)c2cccc(C(F)(F)F)c2)[C@@H](c2cccc(CNC(=O)C3=C(C(=O)OC)CCC3)c2)c2cnn(-c3ccccc3)c21` [Compound I-119]: the IC50 reads like this: under setting [1], 1000 to 3000 nM; under setting [2], 1000 to 3000 nM.
On to `C=C(CC(=O)OC)C(=O)NCc1cccc([C@H]2c3cnn(-c4ccccc4)c3N(CC)C(=O)[C@@H]2NC(=O)c2cccc(C(F)(F)F)c2)c1` [Compound I-121], for which the half-maximal inhibitory concentration (IC50) is, setting by setting: under setting [1], 1000 to 3000 nM; under setting [2], 1000 to 3000 nM.
As for `CCN1C(=O)[C@H](NC(=O)c2cccc(C(F)(F)F)c2)[C@@H](c2cccc(CNC(=O)/C(C)=C/C(=O)OC)c2)c2cnn(-c3ccccc3)c21` [Compound I-125], the IC50 runs as follows: under setting [1], 1000 to 3000 nM; under setting [2], 1000 to 3000 nM.
`CCN1C(=O)[C@H](NC(=O)c2cccc(C(F)(F)F)c2)[C@@H](c2cccc(CNC(=O)C3=CCN(C)C3)c2)c2cnn(-c3ccccc3)c21` [Compound I-128]: the IC50 is, setting by setting: under setting [1], 1000 to 3000 nM; under setting [2], 1000 to 3000 nM.
Regarding `C=C(CN1CCN(C2COC2)CC1)C(=O)NCc1cccc([C@H]2c3cnn(-c4ccccc4)c3N(CC)C(=O)[C@@H]2NC(=O)c2cccc(C(F)(F)F)c2)c1` [Compound I-134], the IC50 reads like this: under setting [1], 200 to 1000 nM; under setting [2], 1000 to 3000 nM.
On to `C=C(CN1CC2CCC(C1)O2)C(=O)NCc1cccc([C@@H]2c3cnn(-c4ccccc4)c3N(CC)C(=O)[C@H]2NC(=O)c2cccc(C(F)(F)F)c2)c1` [Compound I-136], for which the IC50 is, setting by setting: under setting [1], no more than 200 nM; under setting [3], no more than 200 nM.
For `C=C(CN1C[C@@H]2C[C@H]1CO2)C(=O)NCc1cccc([C@@H]2c3cnn(-c4ccccc4)c3N(CC)C(=O)[C@@H]2NC(=O)c2cccc(C(F)(F)F)c2)c1` [Compound I-144], the IC50 reads like this: under setting [1], 200 to 1000 nM; under setting [2], 1000 to 3000 nM.
Regarding `CCN1C(=O)[C@@H](NC(=O)c2cccc(C(F)(F)F)c2)[C@H](c2cc(F)cc(NC(=O)/C=C/CN(C)C)c2)c2cnn(-c3ccccc3)c21` [Compound I-151], the IC50 reads like this: under setting [1], no more than 200 nM; under setting [2], 1000 to 3000 nM.
Regarding `C/C=C(\CN1CCOCC1)C(=O)NCc1cccc([C@@H]2c3cnn(-c4ccccc4)c3N(CC)C(=O)[C@H]2NC(=O)c2cccc(C(F)(F)F)c2)c1` [Compound I-152], the half-inhibitory concentration (IC50) by setting is: under setting [1], no more than 200 nM; under setting [2], 1000 to 3000 nM.
`C=C(CN(C)C1COC1)C(=O)NCc1cccc([C@H]2c3cnn(-c4ccccc4)c3N(CC)C(=O)[C@@H]2NC(=O)c2cccc(C(F)(F)F)c2)c1` [Compound I-154]: the IC50 runs as follows: under setting [1], 200 to 1000 nM; under setting [2], 1000 to 3000 nM.
In the case of `CCN1C(=O)[C@@H](NC(=O)c2cccc(C(F)(F)F)c2)[C@H](c2cccc(CNC(=O)C3=C(C(=O)OC)CC3)c2)c2cnn(-c3ccccc3)c21` [Compound I-155], the IC50 is no more than 200 nM under setting [1] and 1000 to 3000 nM under setting [2].
Regarding `C=C(CN1CC2(COC2)C1)C(=O)NCc1cccc([C@H]2c3cnn(-c4ccccc4)c3N(CC)C(=O)[C@H]2NC(=O)c2cccc(C(F)(F)F)c2)c1` [Compound I-156], the IC50 was 200 to 1000 nM under setting [1] and 1000 to 3000 nM under setting [2].
Consider `C=C(COC)C(=O)Nc1cccc([C@H]2c3c(C)nn(-c4ccccc4)c3N(CC)C(=O)[C@@H]2NC(=O)c2cccc(C(F)(F)F)c2)c1` [Compound I-158], for which the IC50 was no more than 200 nM under setting [1] and 1000 to 3000 nM under setting [2].
For `C=C(CN1CC2(COC2)C1)C(=O)NCc1cccc([C@@H]2c3cnn(-c4ccccc4)c3N(CC)C(=O)[C@H]2NC(=O)c2nccc(C(F)(F)F)n2)c1` [Compound I-161], the IC50 by setting is: under setting [1], no more than 200 nM; under setting [3], no more than 200 nM.
With `C=C(CN1CCC1)C(=O)NCc1cccc([C@@H]2c3cnn(-c4ccccc4)c3N(CC)C(=O)[C@H]2NC(=O)c2nccc(C(F)(F)F)n2)c1` [Compound I-162], the IC50 runs as follows: under setting [1], no more than 200 nM; under setting [3], no more than 200 nM.
With `C=C(CN1CCN(C2COC2)CC1)C(=O)NCc1cccc([C@@H]2c3cnn(-c4ccccc4)c3N(CC)C(=O)[C@H]2NC(=O)c2nccc(C(F)(F)F)n2)c1` [Compound I-163], the half-maximal inhibitory concentration (IC50) by setting is: under setting [1], no more than 200 nM; under setting [3], no more than 200 nM.
Consider `C/C=C(\CN1CC2(COC2)C1)C(=O)N(C)Cc1cccc([C@@H]2c3cnn(-c4ccccc4)c3N(CC)C(=O)[C@H]2NC(=O)c2nccc(C(F)(F)F)n2)c1` [Compound I-235], for which the IC50 was in the range of 1000 to 3000 nM under setting [1] and 1000 to 3000 nM under setting [2].
On to `C=C(CN1CC2CC1CO2)C(=O)NCc1cccc([C@@H]2c3c(C)nn(-c4ccccc4)c3N(CC)C(=O)[C@H]2NC(=O)c2cccc(C(F)(F)F)c2)c1` (some centres unmarked) [Compound I-236], for which the half-inhibitory concentration (IC50) is, setting by setting: under setting [1], no more than 200 nM; under setting [3], no more than 200 nM.
With `C/C=C(\CN1CCN(C2COC2)CC1)C(=O)N(C)Cc1cccc([C@@H]2c3cnn(-c4ccccc4)c3N(CC)C(=O)[C@H]2NC(=O)c2ccn(C(F)(F)F)n2)c1` [Compound I-237, N-((4R,5S)-7-ethyl-4-(3-(((E)-N-methyl-2-((4-(oxetan-3-yl)piperazin-1-yl)methyl)but-2-enamido)methyl)phenyl)-6-oxo-1-phenyl-4,5,6,7-tetrahydro-1H-pyrazolo[3,4-b]pyridin-5-yl)-1-(trifluoromethyl)-1H-pyrazole-3-carboxamide], the IC50 lay within 200 to 1000 nM under setting [1] and 1000 to 3000 nM under setting [2].
On the same counts, the results for `CCN1C(=O)[C@@H](NC(=O)c2cccc(C(F)(F)F)c2)[C@H](c2cccc(CN(C)C/C=C/C(=O)OC(C)(C)C)c2)c2cnn(-c3ccccc3)c21` [Compound I-238, tert-butyl (E)-4-((3-((4R,5S)-7-ethyl-6-oxo-1-phenyl-5-(3-(trifluoromethyl)benzamido)-4,5,6,7-tetrahydro-1H-pyrazolo[3,4-b]pyridin-4-yl)benzyl)(methyl)amino)but-2-enoate] are 1000 to 3000 nM and 1000 to 3000 nM.
Consider `C=C(CN(C)C1COC1)C(=O)N(C)Cc1cccc([C@@H]2c3cnn(-c4ccccc4)c3N(CC)C(=O)[C@H]2NC(=O)c2ccn(C3CC3)n2)c1` [Compound I-239], for which, under setting [2], the IC50 lay within 1000 to 3000 nM.
On to `C/C=C(\CN1CCOCC1)C(=O)NCc1cccc([C@@H]2c3cnn(-c4ccccc4)c3N(CC)C(=O)[C@H]2NC(=O)c2ccn(C3CC3)n2)c1` [Compound I-241], for which the IC50 under setting [1] is no more than 200 nM and the half-inhibitory concentration (IC50) under setting [2] lay in the range of 1000 to 3000 nM.
As to `C/C=C(\CN1CC2(COC2)C1)C(=O)NCc1cccc([C@@H]2c3cnn(-c4ccccc4)c3N(CC)C(=O)[C@H]2NC(=O)c2nccc(C(F)(F)F)n2)c1` [Compound I-243], the half-maximal inhibitory concentration (IC50) by setting is: under setting [1], no more than 200 nM; under setting [2], 200 to 1000 nM.
Regarding `CCN1C(=O)[C@@H](NC(=O)c2cccc(C(F)(F)F)c2)[C@H](c2cccc(CNC(=O)C3=CCN(C)C3)c2)c2c(C)nn(-c3ccccc3)c21` [Compound I-244], the half-maximal inhibitory concentration (IC50) is no more than 200 nM under setting [1] and 1000 to 3000 nM under setting [2].
On the same counts, the results for `CCN1C(=O)[C@@H](NC(=O)c2nccc(C(F)(F)F)n2)[C@H](c2cccc(NC(=O)/C=C/C(=O)N(C)C)c2)c2c(C)nn(-c3ccccc3)c21` [Compound I-245] are 1000 to 3000 nM and 1000 to 3000 nM.
As to `C=C(CN1CCC12COC2)C(=O)NCc1cccc([C@@H]2c3cnn(-c4ccccc4)c3N(CC)C(=O)[C@H]2NC(=O)c2nccc(C(F)(F)F)n2)c1` [Compound I-246], the IC50 under setting [1] is no more than 200 nM and the IC50 under setting [3] was no more than 200 nM.
As to `C=C(CN1CCC12COC2)C(=O)NCc1cccc([C@@H]2c3cnn(-c4ccccc4)c3N(CC)C(=O)[C@H]2NC(=O)c2ccn(C(F)(F)F)n2)c1` [Compound I-247], the IC50 by setting is: under setting [1], no more than 200 nM; under setting [2], 200 to 1000 nM.
Regarding `C/C=C(\CN(C)C1COC1)C(=O)NCc1cccc([C@@H]2c3cnn(-c4ccccc4)c3N(CC)C(=O)[C@H]2NC(=O)c2ccn(C(F)(F)F)n2)c1` [Compound I-248], the IC50 was no more than 200 nM under setting [1] and 200 to 1000 nM under setting [2].
For `CCN1C(=O)[C@@H](NC(=O)c2nccc(C(F)(F)F)n2)[C@H](c2cccc(C(=O)N3CCC[C@H]3C#N)c2)c2cnn(-c3ccccc3)c21` [Compound I-249], in that order: 1000 to 3000 nM and 1000 to 3000 nM.
On to `C/C=C(\CN1CCC12COC2)C(=O)Nc1cccc([C@@H]2c3cnn(-c4ccccc4)c3N(CC)C(=O)[C@H]2NC(=O)c2nccc(C(F)(F)F)n2)c1` [Compound I-251], for which the half-inhibitory concentration (IC50) reads like this: under setting [1], no more than 200 nM; under setting [2], 1000 to 3000 nM.
